# Data reported in patent publication US20230255884A1, “FINISHED FIBROUS SRUCTURES AND METHODS OF THEIR USE AND PREPARATION” (CLEXIO BIOSCIENCES LTD., priority 2019, published 2023).
# Read-outs that look alike come from different tables or passages of the source.
# Key:
# [1] = Example 9: % Add on of 91.4% polyamide/8.6% elastane after 1 h in aqueous 10% PEG 400, 10% propylene glycol, 2% Polysorbate 80 with lidocaine, dried overnight at RT; type: physicochemical
# [2] = Example 26: leveling; % lidocaine Add on from extraction in 0.01M HCl and HPLC; type: physicochemical
# [3] = type: physicochemical; details: 25° C.
# [4] = Example 20: loading kinetics, aqueous 10% lidocaine, 10% PEG 400, 10% propylene glycol, 2% Polysorbate 80, 60° C., pre-cut shapes of 91.4% polyamide/8.6% elastane, squeezed; type: physicochemical
# [5] = Example 23: % Add on by surfactant concentration, 60° C., 1 h; type: physicochemical; details: 3% lidocaine
smiles,measurement,setting,value
"CCN(CC)CC(=O)Nc1c(C)cccc1C [Lidocaine, lidocaine]",% Add on,"[1]; lidocaine 15% (w/w), 2-8° C.",69.77%
same,% Add on,"[1]; lidocaine 15% (w/w), 50° C.",95.74%
same,% Add on,"[1]; lidocaine 15% (w/w), 80° C.",117.78%
same,% Add on,"[1]; lidocaine 15% (w/w), RT",116.98%
same,% Add on,"[1]; lidocaine 20% (w/w), 2-8° C.",78.72%
same,% Add on,"[1]; lidocaine 20% (w/w), 50° C.",107.41%
same,% Add on,"[1]; lidocaine 20% (w/w), 80° C.",116.00%
same,% Add on,"[1]; lidocaine 20% (w/w), RT",134.04%
same,% Add on,"[1]; lidocaine 25% (w/w), 2-8° C.",132.08%
same,% Add on,"[1]; lidocaine 25% (w/w), 50° C.",124.00%
same,% Add on,"[1]; lidocaine 25% (w/w), 80° C.",132.56%
same,% Add on,"[1]; lidocaine 25% (w/w), RT",269.57%
same,% lidocaine Add on,[2]; exposure to 0.01M HCl 1 hr,18.86%
same,% lidocaine Add on,[2]; exposure to 0.01M HCl 2 hr,18.07%
same,% lidocaine Add on,[2]; exposure to 0.01M HCl 4 hr,18.78%
same,% lidocaine Add on,[2]; exposure to 0.01M HCl 6 hr,18.25%
same,% lidocaine Add on,[2]; exposure to 0.01M HCl 22 hr,18.04%
same,% Add on,"[3]; lidocaine 0.1%, dried at RT",42.31%
same,% Add on,"[3]; lidocaine 0.1%, squeezed",7.23%
same,% Add on,"[3]; lidocaine 0.1%, washed in NaOH",2.74%
same,% Add on,"[3]; lidocaine 0.1%, washed in water",1.40%
same,% Add on,"[3]; lidocaine 25%, dried at RT",118.56%
same,% Add on,"[4]; loading time 1 min, Combined",29.915%
same,% Add on,"[4]; loading time 1 min, Shape A",29.820%
same,% Add on,"[4]; loading time 1 min, Shape B",27.838%
same,% Add on,"[4]; loading time 1 min, Shape C",30.455%
same,% Add on,"[4]; loading time 1 min, Shape D",31.547%
same,% Add on,"[4]; loading time 2 min, Combined",35.227%
same,% Add on,"[4]; loading time 2 min, Shape A",34.985%
same,% Add on,"[4]; loading time 2 min, Shape B",36.019%
same,% Add on,"[4]; loading time 2 min, Shape C",34.260%
same,% Add on,"[4]; loading time 2 min, Shape D",35.643%
same,% Add on,"[4]; loading time 3 min, Combined",36.500%
same,% Add on,"[4]; loading time 3 min, Shape A",37.273%
same,% Add on,"[4]; loading time 3 min, Shape B",36.782%
same,% Add on,"[4]; loading time 3 min, Shape C",35.879%
same,% Add on,"[4]; loading time 3 min, Shape D",36.064%
same,% Add on,"[4]; loading time 6 min, Combined",41.938%
same,% Add on,"[4]; loading time 6 min, Shape A",42.242%
same,% Add on,"[4]; loading time 6 min, Shape B",44.328%
same,% Add on,"[4]; loading time 6 min, Shape C",40.764%
same,% Add on,"[4]; loading time 6 min, Shape D",40.418%
same,% Add on,"[4]; loading time 10 min, Combined",41.190%
same,% Add on,"[4]; loading time 10 min, Shape A",39.998%
same,% Add on,"[4]; loading time 10 min, Shape B",44.262%
same,% Add on,"[4]; loading time 10 min, Shape C",40.939%
same,% Add on,"[4]; loading time 10 min, Shape D",39.560%
same,% Add on,"[4]; loading time 60 min, Combined",44.374%
same,% Add on,"[4]; loading time 60 min, Shape B",41.509%
same,% Add on,"[4]; loading time 60 min, Shape C",48.701%
same,% Add on,"[4]; loading time 60 min, Shape D",41.556%
same,% Add on,"[4]; loading time 120 min, Combined",42.458%
same,% Add on,"[4]; loading time 120 min, Shape A",42.233%
same,% Add on,"[4]; loading time 120 min, Shape B",43.286%
same,% Add on,"[4]; loading time 120 min, Shape C",43.679%
same,% Add on,"[4]; loading time 120 min, Shape D",40.635%
same,% Add on,"[4]; loading time 180 min, Combined",41.691%
same,% Add on,"[4]; loading time 180 min, Shape A",42.281%
same,% Add on,"[4]; loading time 180 min, Shape B",40.802%
same,% Add on,"[4]; loading time 180 min, Shape C",42.474%
same,% Add on,"[4]; loading time 180 min, Shape D",41.206%
same,Mean % Add on (dried at RT),[5]; 2% Polysorbate 80,16.18%
same,Mean % Add on (dried at RT),[5]; 5% Polysorbate 80,22.89%
same,Mean % Add on (dried at RT),[5]; 8% Polysorbate 80,21.18%
same,Mean % Add on (dried at RT),[5]; 10% PEG 400,39.67%
same,Mean % Add on (dried at RT),[5]; 10% Polysorbate 80,24.11%
same,Mean % Add on (dried at RT),[5]; 10% propylene glycol,23.99%
same,Mean % Add on (dried at RT),[5]; 15% Polysorbate 80,33.29%
same,Mean % Add on (dried at RT),[5]; 20% Polysorbate 80,38.08%
